The numbers were not newly measured in patent US11304902B2, “Pharmaceutical compositions, preparation and uses thereof” (CURADIGM SAS, priority 2014, dated 2022), which cites them from elsewhere.

Entries after “also recorded” stand apart in the source; their conditions may differ.

Some targets named below: CYP2E1 (Homo sapiens, UniProt P05181); CYP2C19 (Homo sapiens, UniProt P33261); CYP3A4 (Homo sapiens, UniProt P08684); CYP2C9 (Homo sapiens, UniProt P11712).
What all share (settings): human CYP enzyme
The target of the next series is T1, CYP1B1 (Homo sapiens, UniProt Q16678).
T1 sequence (Q16678 1-543): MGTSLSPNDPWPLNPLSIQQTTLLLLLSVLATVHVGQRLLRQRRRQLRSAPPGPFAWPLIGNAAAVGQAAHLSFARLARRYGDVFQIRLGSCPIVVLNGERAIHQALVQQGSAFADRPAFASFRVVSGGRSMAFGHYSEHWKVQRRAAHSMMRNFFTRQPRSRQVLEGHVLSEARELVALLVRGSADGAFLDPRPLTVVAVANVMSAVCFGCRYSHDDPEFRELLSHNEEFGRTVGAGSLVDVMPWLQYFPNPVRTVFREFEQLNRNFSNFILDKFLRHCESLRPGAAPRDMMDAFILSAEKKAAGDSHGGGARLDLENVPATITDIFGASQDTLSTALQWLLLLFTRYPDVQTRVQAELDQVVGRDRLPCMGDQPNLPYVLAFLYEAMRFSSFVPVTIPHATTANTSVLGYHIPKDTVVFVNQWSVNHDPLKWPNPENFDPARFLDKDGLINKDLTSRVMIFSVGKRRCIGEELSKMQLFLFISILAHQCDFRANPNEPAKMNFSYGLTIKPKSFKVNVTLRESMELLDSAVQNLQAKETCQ

The target in the next series is T2, CYP1A2 (Homo sapiens, UniProt P05177).
T2 sequence (P05177 1-516): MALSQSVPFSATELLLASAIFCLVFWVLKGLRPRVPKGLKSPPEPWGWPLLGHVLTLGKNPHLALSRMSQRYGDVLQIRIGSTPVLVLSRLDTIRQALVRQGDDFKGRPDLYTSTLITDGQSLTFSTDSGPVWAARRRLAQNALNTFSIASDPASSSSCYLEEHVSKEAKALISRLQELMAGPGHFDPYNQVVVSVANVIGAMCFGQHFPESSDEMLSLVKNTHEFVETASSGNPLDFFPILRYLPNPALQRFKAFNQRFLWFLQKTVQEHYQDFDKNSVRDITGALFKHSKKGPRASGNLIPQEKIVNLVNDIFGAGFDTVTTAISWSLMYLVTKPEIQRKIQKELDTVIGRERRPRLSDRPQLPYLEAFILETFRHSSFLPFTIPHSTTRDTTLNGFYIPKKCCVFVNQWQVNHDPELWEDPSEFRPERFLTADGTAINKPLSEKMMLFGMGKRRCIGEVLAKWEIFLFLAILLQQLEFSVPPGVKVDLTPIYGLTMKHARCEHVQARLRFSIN

A further series concerns the target T3, CYP4A11 (Homo sapiens, UniProt Q02928).
T3 sequence (Q02928 5-519): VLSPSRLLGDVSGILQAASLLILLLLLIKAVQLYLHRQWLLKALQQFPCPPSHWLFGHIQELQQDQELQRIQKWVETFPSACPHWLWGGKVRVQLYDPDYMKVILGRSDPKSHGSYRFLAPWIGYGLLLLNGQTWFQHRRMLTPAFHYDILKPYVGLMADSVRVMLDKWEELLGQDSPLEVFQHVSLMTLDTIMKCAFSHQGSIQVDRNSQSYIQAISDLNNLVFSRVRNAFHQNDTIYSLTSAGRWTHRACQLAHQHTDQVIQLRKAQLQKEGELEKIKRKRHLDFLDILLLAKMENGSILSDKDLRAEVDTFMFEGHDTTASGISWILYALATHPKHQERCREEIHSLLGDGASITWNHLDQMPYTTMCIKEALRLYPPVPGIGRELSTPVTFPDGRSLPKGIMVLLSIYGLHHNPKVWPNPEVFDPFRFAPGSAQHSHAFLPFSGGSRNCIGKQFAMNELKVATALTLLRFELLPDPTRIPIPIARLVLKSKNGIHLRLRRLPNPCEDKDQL

The next series has as its target T4, CYP4F12 (Homo sapiens, UniProt Q9HCS2).
T4 sequence (Q9HCS2 1-524): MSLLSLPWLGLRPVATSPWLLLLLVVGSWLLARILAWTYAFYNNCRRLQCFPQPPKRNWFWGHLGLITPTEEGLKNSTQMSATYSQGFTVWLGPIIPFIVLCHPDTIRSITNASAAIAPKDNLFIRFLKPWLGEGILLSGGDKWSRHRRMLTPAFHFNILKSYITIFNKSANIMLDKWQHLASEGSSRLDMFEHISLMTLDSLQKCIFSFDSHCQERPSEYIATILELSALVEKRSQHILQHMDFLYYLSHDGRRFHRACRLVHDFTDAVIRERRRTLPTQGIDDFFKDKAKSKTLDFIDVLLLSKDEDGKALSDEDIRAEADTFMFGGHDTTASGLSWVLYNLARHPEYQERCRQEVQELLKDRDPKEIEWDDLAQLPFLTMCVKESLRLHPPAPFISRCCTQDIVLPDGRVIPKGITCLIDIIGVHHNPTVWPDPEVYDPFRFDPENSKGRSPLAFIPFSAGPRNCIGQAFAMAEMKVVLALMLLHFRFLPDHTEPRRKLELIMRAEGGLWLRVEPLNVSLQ

Chain of CYP2C9 (P11712 whole entry): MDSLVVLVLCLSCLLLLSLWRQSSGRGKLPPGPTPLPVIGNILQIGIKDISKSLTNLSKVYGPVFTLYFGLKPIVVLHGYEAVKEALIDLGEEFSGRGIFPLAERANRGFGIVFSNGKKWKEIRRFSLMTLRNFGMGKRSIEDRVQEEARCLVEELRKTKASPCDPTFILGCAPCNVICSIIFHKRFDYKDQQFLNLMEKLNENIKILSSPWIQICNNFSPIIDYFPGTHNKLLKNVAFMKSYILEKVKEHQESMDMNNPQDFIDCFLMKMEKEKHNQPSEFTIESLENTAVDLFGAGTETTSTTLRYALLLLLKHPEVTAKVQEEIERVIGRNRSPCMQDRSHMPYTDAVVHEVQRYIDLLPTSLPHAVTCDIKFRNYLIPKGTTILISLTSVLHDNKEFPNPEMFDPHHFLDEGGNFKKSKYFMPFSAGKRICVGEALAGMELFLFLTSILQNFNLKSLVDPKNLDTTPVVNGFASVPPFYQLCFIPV
Chain of CYP3A4 (P08684 whole entry): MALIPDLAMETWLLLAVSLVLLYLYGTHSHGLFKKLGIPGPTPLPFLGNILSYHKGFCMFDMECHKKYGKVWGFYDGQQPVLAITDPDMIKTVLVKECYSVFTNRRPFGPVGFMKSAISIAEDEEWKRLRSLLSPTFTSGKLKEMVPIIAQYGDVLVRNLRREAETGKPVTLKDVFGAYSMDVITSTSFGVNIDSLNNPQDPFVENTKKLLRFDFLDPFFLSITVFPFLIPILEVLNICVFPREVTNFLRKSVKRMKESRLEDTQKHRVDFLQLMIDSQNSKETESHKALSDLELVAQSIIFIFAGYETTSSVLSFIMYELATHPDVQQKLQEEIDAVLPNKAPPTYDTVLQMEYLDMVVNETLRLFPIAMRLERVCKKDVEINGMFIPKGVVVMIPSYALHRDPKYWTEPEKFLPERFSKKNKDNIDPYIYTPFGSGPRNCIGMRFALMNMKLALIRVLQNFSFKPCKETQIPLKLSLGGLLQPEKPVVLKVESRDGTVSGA
Chain of CYP2E1 (P05181 whole entry): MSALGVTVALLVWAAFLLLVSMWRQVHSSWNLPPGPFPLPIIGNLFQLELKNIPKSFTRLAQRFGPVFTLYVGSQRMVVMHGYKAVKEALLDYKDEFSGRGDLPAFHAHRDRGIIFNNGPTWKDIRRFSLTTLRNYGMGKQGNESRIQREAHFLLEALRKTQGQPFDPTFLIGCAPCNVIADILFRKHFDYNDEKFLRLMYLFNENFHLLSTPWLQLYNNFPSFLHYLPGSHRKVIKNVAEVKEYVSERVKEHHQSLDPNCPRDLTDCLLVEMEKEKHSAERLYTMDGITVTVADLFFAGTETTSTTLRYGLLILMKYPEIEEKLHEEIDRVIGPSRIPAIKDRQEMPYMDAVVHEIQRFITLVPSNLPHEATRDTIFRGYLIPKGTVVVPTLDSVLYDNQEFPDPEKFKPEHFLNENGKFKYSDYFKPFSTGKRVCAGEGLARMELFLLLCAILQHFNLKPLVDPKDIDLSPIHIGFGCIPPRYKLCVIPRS
Chain of CYP2C19 (P33261 whole entry): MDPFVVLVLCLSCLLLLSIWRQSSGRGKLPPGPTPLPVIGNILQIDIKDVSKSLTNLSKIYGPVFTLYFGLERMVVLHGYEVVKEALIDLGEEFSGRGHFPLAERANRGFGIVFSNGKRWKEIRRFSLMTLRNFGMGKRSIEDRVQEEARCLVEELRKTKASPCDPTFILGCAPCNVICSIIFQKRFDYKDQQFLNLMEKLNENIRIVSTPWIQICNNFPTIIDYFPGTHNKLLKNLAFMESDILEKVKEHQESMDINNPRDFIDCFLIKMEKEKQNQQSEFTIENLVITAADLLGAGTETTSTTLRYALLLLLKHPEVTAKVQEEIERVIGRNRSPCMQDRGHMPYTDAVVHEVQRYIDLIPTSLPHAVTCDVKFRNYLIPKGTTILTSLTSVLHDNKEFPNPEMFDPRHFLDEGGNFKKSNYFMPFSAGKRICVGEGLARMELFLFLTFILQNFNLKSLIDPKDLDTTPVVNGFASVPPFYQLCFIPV

As for `CCCCC/C=C\C/C=C\C/C=C\C/C=C\CCCC(=O)O` [Arachidonic acid, arachidonic acid], the “role towards CYP1B1 (substrate / inhibitor / inducer)” value at CYP1B1 was “Inhibitor”. Moreover, the “role towards CYP1A2 (substrate / inhibitor / inducer)” value on CYP1A2 was “Substrate; also recorded: Inhibitor”. Moreover, the “role towards CYP2E1 (substrate / inhibitor / inducer)” value at CYP2E1 is “Inhibitor”. Moreover, the “role towards CYP4A11 (substrate / inhibitor / inducer)” value at CYP4A11 is recorded as “Substrate”. In addition, the “role towards CYP4F12 (substrate / inhibitor / inducer)” value at CYP4F12 was “Substrate”. Moreover, the “role towards CYP2C19 (substrate / inhibitor / inducer)” value on CYP2C19 is listed as “Substrate”. In addition, the “role towards CYP3A4 (substrate / inhibitor / inducer)” value on CYP3A4 was “Inhibitor; also recorded: Substrate”. Also, the “role towards CYP2C9 (substrate / inhibitor / inducer)” value at CYP2C9 is “Inhibitor; also recorded: Substrate”.
